Assay results as given in PubChem BioAssay AID2060910 (Molecular Pharmacology Branch, DTP, NCI, 2025).

Tested on: 242566-281-R-J2-PDC complex spheroid viability
Assay: Anticancer human tumor 242566-281-R-J2-PDC patient-derived pancreatic carcinoma cell line growth inhibition [RAS]
Conditions: for IC50: curve of first compound; for viability, T/C: stronger effect = lower value
In short: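 Agents were tested in combination matrices in half-log decrements from a top concentration at or near clinical Cmax (10 microM if undetermined). Targets were multi-cell spheroids of tumour lines plus HUVEC and MSC stromal cells.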
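Also: spheroids exposed to compound for 7 days before readout.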
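For viability, T/C in this document: 100% = DMSO vehicle control wells.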

C=CC(=O)Nc1cc(Nc2nccc(-c3cn(C)c4ccccc34)n2)c(OC)cc1N(C)CCN(C)C + CCn1c(-c2cc(N3CCN(C)CC3)cnc2C(C)OC)c2c3cc(ccc31)-c1csc(n1)CC(NC(=O)C1CC1C)C(=O)N1CCCC(N1)C(=O)OCC(C)(C)C2
IC50 (second compound 0.000949 µM): 323 nM | IC50 (second compound 0.003 µM): 71.6 nM | IC50 (second compound 0.00949 µM): < 3.16 nM | IC50 (second compound 0.03 µM): < 3.16 nM | IC50 (second compound 0.0949 µM): < 3.16 nM | IC50 (second compound 0.3 µM): < 3.16 nM | viability, T/C (second compound 0.000949 µM, first compound 0.00316 µM): 90.9% | viability, T/C (second compound 0.000949 µM, first compound 0.01 µM): 90% | viability, T/C (second compound 0.000949 µM, first compound 0.0316 µM): 61.8% | viability, T/C (second compound 0.000949 µM, first compound 0.1 µM): 75.8% | viability, T/C (second compound 0.000949 µM, first compound 0.316 µM): 51.8% | viability, T/C (second compound 0.000949 µM, first compound 1 µM): 25.3% | viability, T/C (second compound 0.003 µM, first compound 0.00316 µM): 76% | viability, T/C (second compound 0.003 µM, first compound 0.01 µM): 61.4% | viability, T/C (second compound 0.003 µM, first compound 0.0316 µM): 54.9% | viability, T/C (second compound 0.003 µM, first compound 0.1 µM): 52.2% | viability, T/C (second compound 0.003 µM, first compound 0.316 µM): 35.2% | viability, T/C (second compound 0.003 µM, first compound 1 µM): 19% | viability, T/C (second compound 0.00949 µM, first compound 0.00316 µM): 48.4% | viability, T/C (second compound 0.00949 µM, first compound 0.01 µM): 40.9% | viability, T/C (second compound 0.00949 µM, first compound 0.0316 µM): 41.2% | viability, T/C (second compound 0.00949 µM, first compound 0.1 µM): 30.7% | viability, T/C (second compound 0.00949 µM, first compound 0.316 µM): 21.2% | viability, T/C (second compound 0.00949 µM, first compound 1 µM): 15.3% | viability, T/C (second compound 0.03 µM, first compound 0.00316 µM): 31.3% | viability, T/C (second compound 0.03 µM, first compound 0.01 µM): 30.7% | viability, T/C (second compound 0.03 µM, first compound 0.0316 µM): 24% | viability, T/C (second compound 0.03 µM, first compound 0.1 µM): 22% | viability, T/C (second compound 0.03 µM, first compound 0.316 µM): 14.8% | viability, T/C (second compound 0.03 µM, first compound 1 µM): 16.7% | viability, T/C (second compound 0.0949 µM, first compound 0.00316 µM): 21.2% | viability, T/C (second compound 0.0949 µM, first compound 0.01 µM): 20.6% | viability, T/C (second compound 0.0949 µM, first compound 0.0316 µM): 20.1% | viability, T/C (second compound 0.0949 µM, first compound 0.1 µM): 18.1% | viability, T/C (second compound 0.0949 µM, first compound 0.316 µM): 13% | viability, T/C (second compound 0.0949 µM, first compound 1 µM): 15.9% | viability, T/C (second compound 0.3 µM, first compound 0.00316 µM): 18.6% | viability, T/C (second compound 0.3 µM, first compound 0.01 µM): 18.2% | viability, T/C (second compound 0.3 µM, first compound 0.0316 µM): 15.7% | viability, T/C (second compound 0.3 µM, first compound 0.1 µM): 14% | viability, T/C (second compound 0.3 µM, first compound 0.316 µM): 14.6% | viability, T/C (second compound 0.3 µM, first compound 1 µM): 14.9%

CC1(C)CCC(Nc2ncc(C(F)(F)F)c(-c3c[nH]c4c(P(C)(C)=O)c(C#N)ccc34)n2)CN1 (centres undefined) + C=CC(=O)N1CCN(c2nc(OCC3CCCN3C)nc3c(F)c(-c4nc(N)cc(C)c4C(F)(F)F)c(Cl)cc23)C(C)C1
IC50 (second compound 0.00316 µM): > 300 nM | IC50 (second compound 0.01 µM): > 300 nM | IC50 (second compound 0.0316 µM): > 300 nM | IC50 (second compound 0.1 µM): > 300 nM | IC50 (second compound 0.316 µM): > 300 nM | IC50 (second compound 1 µM): > 300 nM | viability, T/C (second compound 0.00316 µM, first compound 0.000949 µM): 109% | viability, T/C (second compound 0.00316 µM, first compound 0.003 µM): 161% | viability, T/C (second compound 0.00316 µM, first compound 0.00949 µM): 154% | viability, T/C (second compound 0.00316 µM, first compound 0.03 µM): 128% | viability, T/C (second compound 0.00316 µM, first compound 0.0949 µM): 146% | viability, T/C (second compound 0.00316 µM, first compound 0.3 µM): 135% | viability, T/C (second compound 0.01 µM, first compound 0.000949 µM): 137% | viability, T/C (second compound 0.01 µM, first compound 0.003 µM): 151% | viability, T/C (second compound 0.01 µM, first compound 0.00949 µM): 142% | viability, T/C (second compound 0.01 µM, first compound 0.03 µM): 124% | viability, T/C (second compound 0.01 µM, first compound 0.0949 µM): 158% | viability, T/C (second compound 0.01 µM, first compound 0.3 µM): 129% | viability, T/C (second compound 0.0316 µM, first compound 0.000949 µM): 114% | viability, T/C (second compound 0.0316 µM, first compound 0.003 µM): 173% | viability, T/C (second compound 0.0316 µM, first compound 0.00949 µM): 133% | viability, T/C (second compound 0.0316 µM, first compound 0.03 µM): 113% | viability, T/C (second compound 0.0316 µM, first compound 0.0949 µM): 138% | viability, T/C (second compound 0.0316 µM, first compound 0.3 µM): 132% | viability, T/C (second compound 0.1 µM, first compound 0.000949 µM): 151% | viability, T/C (second compound 0.1 µM, first compound 0.003 µM): 130% | viability, T/C (second compound 0.1 µM, first compound 0.00949 µM): 103% | viability, T/C (second compound 0.1 µM, first compound 0.03 µM): 137% | viability, T/C (second compound 0.1 µM, first compound 0.0949 µM): 138% | viability, T/C (second compound 0.1 µM, first compound 0.3 µM): 144% | viability, T/C (second compound 0.316 µM, first compound 0.000949 µM): 152% | viability, T/C (second compound 0.316 µM, first compound 0.003 µM): 144% | viability, T/C (second compound 0.316 µM, first compound 0.00949 µM): 147% | viability, T/C (second compound 0.316 µM, first compound 0.03 µM): 109% | viability, T/C (second compound 0.316 µM, first compound 0.0949 µM): 143% | viability, T/C (second compound 0.316 µM, first compound 0.3 µM): 149% | viability, T/C (second compound 1 µM, first compound 0.000949 µM): 130% | viability, T/C (second compound 1 µM, first compound 0.003 µM): 139% | viability, T/C (second compound 1 µM, first compound 0.00949 µM): 142% | viability, T/C (second compound 1 µM, first compound 0.03 µM): 123% | viability, T/C (second compound 1 µM, first compound 0.0949 µM): 128% | viability, T/C (second compound 1 µM, first compound 0.3 µM): 121%
